In ChEMBL document CHEMBL5604063, “ASAP - DENV-2 NS2B-NS3 protease fluorescence dose response” (2024):
Where “and” joins values, the source holds several entries; their conditions need not be identical. Equal entries are not always repeated.

What was measured:
[1] = biological target: T1, Genome polyprotein (dengue virus type 2, UniProt P29990); assay type: functional, Thailand/16681/1984
[2] = biological target: T1, Genome polyprotein; assay type: functional, Thailand/16681/1984; remark: listed apart in the source

T1 sequence (P29990 1346-1475 limits assumed): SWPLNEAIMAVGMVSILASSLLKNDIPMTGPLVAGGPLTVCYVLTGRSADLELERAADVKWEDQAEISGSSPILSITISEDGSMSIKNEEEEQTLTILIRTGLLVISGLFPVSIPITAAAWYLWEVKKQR
T1 sequence (P29990 1476-2093 limits assumed): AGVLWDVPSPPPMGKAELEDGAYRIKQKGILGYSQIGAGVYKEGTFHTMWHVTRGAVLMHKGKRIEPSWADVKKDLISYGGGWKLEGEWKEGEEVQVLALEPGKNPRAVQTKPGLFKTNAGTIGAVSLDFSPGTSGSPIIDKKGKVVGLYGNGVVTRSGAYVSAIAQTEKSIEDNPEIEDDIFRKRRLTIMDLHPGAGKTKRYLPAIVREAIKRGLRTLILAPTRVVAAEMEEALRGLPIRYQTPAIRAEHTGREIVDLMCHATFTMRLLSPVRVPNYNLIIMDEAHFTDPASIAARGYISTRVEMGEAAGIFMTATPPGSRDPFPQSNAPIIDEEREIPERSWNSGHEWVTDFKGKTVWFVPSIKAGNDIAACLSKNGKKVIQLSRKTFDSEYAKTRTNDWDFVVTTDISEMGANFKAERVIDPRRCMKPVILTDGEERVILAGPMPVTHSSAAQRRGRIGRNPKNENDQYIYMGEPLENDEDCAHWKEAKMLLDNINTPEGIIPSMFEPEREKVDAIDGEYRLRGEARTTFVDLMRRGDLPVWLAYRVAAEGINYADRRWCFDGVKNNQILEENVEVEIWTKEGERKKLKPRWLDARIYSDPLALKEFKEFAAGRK

| SMILES | IC50 [1] | IC50 [2] |
| --- | --- | --- |
| CCc1sc(C(=O)Nc2cccc(-c3nnn[nH]3)c2)cc1C | > 100 µM | > 99.5 µM |
| O=C(O)CCc1ccc(NC(=O)c2cc(Cl)cc(C3CC3)c2)cc1 | > 100 µM | > 99.5 µM |
| CC(C)C[C@H](NC(=O)c1cc(Cl)cc(NC(=O)OCc2ccccc2)c1)c1nnn[nH]1 | 28.3 µM | 74.6 µM |
| O=C(Nc1cc(Cl)cc(C(=O)NC[C@H]2C[C@@H]2C(=O)O)c1)OCc1ccccc1 | > 100 µM | > 99.5 µM |
| CS(=O)(=O)c1cc(CN)cc([C@@H]2C[C@H]2c2cc(Cl)cc(NC(=O)OCc3ccccc3)c2)c1 | > 100 µM | > 99.5 µM |
| CCc1[nH]c(-c2ccccc2)cc1C(=O)Nc1cccc(-c2nnn[nH]2)c1 | 33.1 µM | > 99.5 µM |
| CS(=O)(=O)NC(=O)c1cc(CN)cc(NC(=O)c2cc(Cl)cc(NC(=O)OCc3ccccc3)c2)c1 | > 100 µM | > 99.5 µM |
| CC(=Cc1cc(Cl)cc(NC(=O)OCc2ccccc2)c1)c1cccc(CN)c1 | > 100 µM | 23.4 µM |
| CCc1cc(C(=O)Nc2cccc(-c3nnn[nH]3)c2)ccc1Cl | 67.2 µM | > 99.5 µM |
| O=C(Nc1ccc(-n2nn[nH]c2=O)cc1)c1cc(Cl)cc(C2CC2)c1 | 62.2 µM | > 99.5 µM |
| O=C(Nc1cc(Cl)cc(C(=O)Nc2cccc3c2OC[C@H](C(=O)O)C3)c1)OCc1ccccc1 | 19.1 µM | 50.4 µM |
| O=C(Nc1cc(Cl)cc([C@H](C#CCO)Nc2cccc(-c3nn[nH]n3)c2)c1)OCc1ccccc1 | 7.98 µM and 7.07 µM | 13.6 µM and 12.9 µM |
| O=C(Nc1cc(Cl)cc(C(=O)NCC[C@H]2C[C@@H]2C(=O)O)c1)OCc1ccccc1 | > 100 µM | > 99.5 µM |
| Cc1c(C(=O)Nc2cc(CCCN)ccc2F)cc(C2CC2)n1C | > 100 µM | > 99.5 µM |
| Clc1cc(/C=C/c2cccc(-c3nn[nH]n3)c2)c2cn[nH]c2c1 | > 100 µM | > 99.5 µM |
| N#C[C@H](Nc1cccc(-c2nn[nH]n2)c1)c1cc(Cl)cc(NC(=O)OCc2ccccc2)c1 | 8.74 µM and 6.62 µM and 11.4 µM and 8.37 µM | 10.5 µM and 10.4 µM and 13.7 µM and 9.79 µM |
| O=C(Nc1ccc2c(c1)CNC2)c1cc(Cl)cc2[nH]ncc12 | > 100 µM | 72.5 µM and 58.7 µM and 89.7 µM |
| CCCc1sc(C(=O)Nc2cccc(-c3nnn[nH]3)c2)cc1CC | 19 µM and 20.6 µM | 45.8 µM |
| C=CC[C@H](Nc1cccc(-c2nn[nH]n2)c1)c1cc(Cl)cc2[nH]ncc12 | 53.4 µM and 45 µM | 92 µM |
| Cc1c(C(=O)Nc2ccc([C@@H](C)N)cc2)cc(C2CC2)n1C | > 100 µM | > 99.5 µM |
| CNC(=O)[C@H](Nc1cccc(-c2nn[nH]n2)c1)c1cc(Cl)cc(NC(=O)OCc2ccccc2)c1 | 28.2 µM and 21.1 µM | 48.6 µM |
| O=C(O)CCCc1ccc(NC(=O)c2cc(Cl)cc(NC(=O)OCc3ccccc3)c2)cc1 | 27.3 µM and 21.1 µM | 43.3 µM |

| SMILES | IC50 [1] | IC50 [2] |
| --- | --- | --- |
| O=C(Nc1cc(Cl)cc(C(=O)Nc2cncc(C(=O)O)c2)c1)OCc1ccccc1 | 32.1 µM and 27.5 µM | 70 µM |
| NCCc1ccc([C@H]2C[C@@H]2c2cc(Cl)cc(NC(=O)OCc3ccccc3)c2)cc1 | 58.9 µM and 31.6 µM | 7.22 µM and 8.69 µM |
| CNC(=O)[C@H](Nc1cccc(-c2nn[nH]n2)c1)c1cc(Cl)cc2[nH]ncc12 | > 100 µM | > 99.5 µM |
| NCc1ccc2nc(-c3cc(Cl)cc(NC(=O)OCc4ccccc4)c3)c(CCCO)cc2c1 | > 100 µM | 89.3 µM |
| Clc1cc(CCc2cccc(-c3nn[nH]n3)c2)c2cn[nH]c2c1 | 99.1 µM | > 99.5 µM |
| O=C(Nc1cc(Cl)cc(-c2ccc3[nH]c(C(=O)O)cc3c2)c1)OCc1ccccc1 | 5.48 µM and 4.93 µM | 6.65 µM and 5.47 µM |
| O=C(Nc1ccc(-c2nnn[nH]2)cc1)c1cc(Cl)cc(C2CC2)c1 | 37.1 µM and 36 µM | 69.5 µM |
| O=C(O)Cn1ncc2cc(-c3cc(Cl)cc(NC(=O)OCc4ccccc4)c3)ccc21 | 10.7 µM and 11 µM | 20.8 µM |
| CCNC(=O)Nc1cc(Cl)cc(C(=O)Nc2cc(C)cc(CN)c2)c1 | > 100 µM | > 99.5 µM |
| O=C(Nc1cc(Cl)cc(S(=O)(=O)Nc2cccc(-c3nn[nH]n3)c2)c1)OCc1ccccc1 | 11.5 µM and 8.87 µM | 22.5 µM |
| NCc1cc(C(=O)O)cc([C@@H]2C[C@H]2c2cc(Cl)cc(NC(=O)OCc3ccccc3)c2)c1 | > 100 µM | > 99.5 µM |
| CCc1nc(C)c(C(=O)Nc2cccc(-c3nnn[nH]3)c2)s1 | > 100 µM | > 99.5 µM |
| C[C@H](C(=O)O)c1cccc(NC(=O)c2cc(Cl)cc(NC(=O)OCc3ccccc3)c2)c1 | 24.7 µM and 27.2 µM | 58.7 µM |
| C=CC[C@H](Nc1cc(Cl)cc(NC(=O)OCc2ccccc2)c1)c1cccc(-c2nn[nH]n2)c1 | 6.73 µM and 4.97 µM and 5.55 µM and 5.77 µM and 4.21 µM and 4.15 µM | 7.41 µM and 7.43 µM and 7.49 µM and 7.65 µM |
| O=C(Nc1cc(Cl)cc([C@H]2C[C@@H]2c2cccc(C3CCNCC3)c2)c1)OCc1ccccc1 | 54.1 µM and 34.5 µM | 6.78 µM and 6.9 µM |
| C=CC[C@H](Nc1cc(CN)ccn1)c1cc(Cl)cc(NC(=O)OCc2ccccc2)c1 | > 100 µM | > 99.5 µM |
| CNC(=O)[C@H](Nc1cccc(C(=O)O)c1)c1cc(Cl)cc2[nH]ncc12 | > 100 µM | > 99.5 µM |
| O=C(Nc1cc(Cl)cc([C@H](C#CCO)Nc2ccc(-c3nn[nH]n3)cc2)c1)OCc1ccccc1 | 8.13 µM and 6.72 µM | 12.2 µM |
| C#C[C@H](Nc1cccc(-c2nn[nH]n2)c1)c1cc(Cl)cc(NC(=O)OCc2ccccc2)c1 | 9.28 µM and 8.35 µM | 10.6 µM |
| Cc1c(C(=O)Nc2cc(F)cc(CN)c2)cc(C2CC2)n1C | > 100 µM | > 99.5 µM |
| Cc1c(C(=O)Nc2cccc(CN)c2)cc(C2CCC2)n1C | > 100 µM | > 99.5 µM |
| Cc1c(C(=O)Nc2ccc(CN)cc2)cc(C2CC2)n1C | > 100 µM | > 99.5 µM |

| SMILES | IC50 [1] | IC50 [2] |
| --- | --- | --- |
| CN1C[C@H](c2cccc(CN)c2)[C@@H](c2cc(Cl)cc(NC(=O)OCc3ccccc3)c2)C1 | > 100 µM | > 99.5 µM |
| O=C(Nc1cc(Cl)cc(C(=O)N[C@H]2CCCC[C@@H]2C(=O)O)c1)OCc1ccccc1 | > 100 µM | > 99.5 µM |
| Cc1c(C(=O)Nc2cc(CN)ccc2F)cc(C2CC2)n1C | > 100 µM | > 99.5 µM |
| CNC(=O)[C@H](Nc1cc(Cl)cc(NC(=O)OCc2ccccc2)c1)c1cccc(-c2nn[nH]n2)c1 | 22.2 µM and 18 µM | 45.9 µM and 44 µM |
| NCc1cccc([C@H](CCCO)Nc2cc(Cl)cc(NC(=O)OCc3ccccc3)c2)c1 | > 100 µM | 85.8 µM |
| O=C(Nc1cc(Cl)cc(C(=O)Nc2cccc(C3(C(=O)O)CCC3)c2)c1)OCc1ccccc1 | 12.5 µM and 12.8 µM | 24.6 µM |
| O=C(Nc1cc(Cl)cc(C(=O)Nc2cc(-c3nnn[nH]3)ccc2F)c1)OCc1ccccc1 | 11 µM and 7.48 µM | 15.6 µM |
| CS(=O)(=O)NC(=O)c1cc(CN)cc([C@@H]2C[C@H]2c2cc(Cl)cc(NC(=O)OCc3ccccc3)c2)c1 | > 100 µM | > 99.5 µM |
| N#C[C@H](Nc1ccc(-c2nn[nH]n2)cc1)c1cc(Cl)cc(NC(=O)OCc2ccccc2)c1 | 7.23 µM and 13 µM | 10.7 µM |
| NCc1ccc([C@H]2C[C@@H]2c2cc(Cl)cc(NC(=O)OCc3ccccc3)c2)cc1 | > 100 µM | 9.84 µM and 11.1 µM |
| CCc1cc(C(=O)Nc2cccc(-c3nnn[nH]3)c2)sc1C | > 100 µM | > 99.5 µM |
| O=C(O)CCCc1cccc(NC(=O)c2cc(Cl)cc(NC(=O)OCc3ccccc3)c2)c1 | 23.7 µM and 19.7 µM | 37.2 µM |
| C=CC[C@H](Nc1cccc(-c2nn[nH]n2)c1)c1cc(Cl)cc(NC(=O)OCc2ccccc2)c1 | 6.22 µM and 4.97 µM | 6.97 µM |
| O=C(Nc1cc(Cl)cc(C(=O)N[C@H](c2nn[nH]n2)C2CCNCC2)c1)OCc1ccccc1 | > 100 µM | > 99.5 µM |
| O=C(O)CCc1cccc(NC(=O)c2cc(Cl)cc(NC(=O)OCc3ccccc3)c2)c1 | 16.4 µM and 19.7 µM | 48.4 µM |
| COC(=O)c1cc(Cl)cc(S(=O)(=O)Nc2cccc(-c3nnn[nH]3)c2)c1F | > 100 µM | > 99.5 µM |
| N#C[C@H](Nc1cc(Cl)cc(NC(=O)OCc2ccccc2)c1)c1ccc(-c2nn[nH]n2)cc1 | 6.86 µM and 5.66 µM | 9.45 µM |
| CNC(=O)C[C@H](Nc1cccc(F)n1)c1cc(Cl)cc(Br)c1 | > 100 µM | > 99.5 µM |
| COc1c(C(N)=O)cc(Cl)cc1S(=O)(=O)Nc1cccc(-c2nnn[nH]2)c1 | > 100 µM | > 99.5 µM |
| O=C(Nc1cc(Cl)cc(C(=O)Nc2ccc([C@@H]3C[C@H]3C(=O)O)cc2)c1)OCc1ccccc1 | 9.55 µM and 9.43 µM | 19.5 µM |
| CCc1cc(C(=O)Nc2cccc(-c3nnn[nH]3)c2)nn1-c1ccccc1 | > 100 µM | > 99.5 µM |
